Results: PubChem BioAssay AID248 (DTP/NCI, 2004)
Several values for one entry are separate records, joined by “and”; a condition that tells them apart may be missing. Equal values may be shown once. Inconclusive results and toxic doses are left out. Rule as the data show it: active = T/C of 150% or more; inactive = T/C below 125%.

Test system: L1210 leukemia ip in BDF1 mice, survival T/C
Assay: NCI In Vivo Anticancer Drug Screen. Data for tumor model L1210 Leukemia (intraperitoneal) in B6D2F1 (BDF1) mice
Conditions: endpoint: mean survival time, higher = longer survival
Outline: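 Tumor was transplanted into mice, which were then dosed with test compound or vehicle alone. Survival was recorded for each group, and the treated figure was expressed relative to the control figure.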

[1] = dose: 100.0 mg/kg/injection, schedule: Q01DX001 (ip), vehicle: saline
[2] = dose: 100.0 mg/kg/injection, schedule: Q01DX009 (ip), vehicle: Klucel (hydroxypropylcellulose) (HPC)
[3] = dose: 100.0 mg/kg/injection, schedule: Q04DX003 (ip), vehicle: Klucel (hydroxypropylcellulose) (HPC)
[4] = dose: 200.0 mg/kg/injection, schedule: Q01DX009 (ip), vehicle: Klucel (hydroxypropylcellulose) (HPC)
[5] = dose: 200.0 mg/kg/injection, schedule: Q04DX003 (ip), vehicle: Klucel (hydroxypropylcellulose) (HPC)
[6] = dose: 400.0 mg/kg/injection, schedule: Q04DX003 (ip), vehicle: Klucel (hydroxypropylcellulose) (HPC)
[7] = dose: 100.0 mg/kg/injection, schedule: Q04DX003 (ip), vehicle: acetone
[8] = dose: 200.0 mg/kg/injection, schedule: Q04DX003 (ip), vehicle: acetone
[9] = dose: 400.0 mg/kg/injection, schedule: Q04DX003 (ip), vehicle: acetone
[10] = dose: 50.0 mg/kg/injection, schedule: Q01DX001 (ip), vehicle: saline
[11] = dose: 200.0 mg/kg/injection, schedule: Q01DX001 (ip), vehicle: saline
[12] = dose: 100.0 mg/kg/injection, schedule: Q04DX003 (ip), vehicle: saline
[13] = dose: 200.0 mg/kg/injection, schedule: Q04DX003 (ip), vehicle: saline
[14] = dose: 50.0 mg/kg/injection, schedule: Q04DX003 (ip), vehicle: Klucel (hydroxypropylcellulose) (HPC)
[15] = dose: 50.0 mg/kg/injection, schedule: Q04DX003 (ip), vehicle: saline
[16] = dose: 25.0 mg/kg/injection, schedule: Q01DX009 (ip), vehicle: saline
[17] = dose: 100.0 mg/kg/injection, schedule: Q01DX009 (ip), vehicle: saline with Tween-80
[18] = dose: 200.0 mg/kg/injection, schedule: Q01DX009 (ip), vehicle: saline with Tween-80
[19] = dose: 400.0 mg/kg/injection, schedule: Q01DX009 (ip), vehicle: saline with Tween-80
[20] = dose: 400.0 mg/kg/injection, schedule: Q01DX001 (ip), vehicle: saline

Measured: T/C

O=C(O)COc1ccc2ccccc2c1Cl
inactive: dose: 100.0 mg/kg/injection, schedule: Q04DX002 (ip), vehicle: Klucel (hydroxypropylcellulose) (HPC) 86 % of control | dose: 200.0 mg/kg/injection, schedule: Q04DX002 (ip), vehicle: Klucel (hydroxypropylcellulose) (HPC) 89 % of control | dose: 400.0 mg/kg/injection, schedule: Q04DX002 (ip), vehicle: Klucel (hydroxypropylcellulose) (HPC) 92 % of control

O=S(=O)(Nc1ccccc1)c1ccc([As](=O)(O)O)cc1
inactive: [1] 103 % of control

CCOC(=O)c1c(C)[nH]c(-c2ccccc2)c1C
inactive: [2] 109 % of control | [3] 102 % of control | [4] 97 % of control | [5] 100 % of control | dose: 400.0 mg/kg/injection, schedule: Q01DX009 (ip), vehicle: Klucel (hydroxypropylcellulose) (HPC) 95 % of control | [6] 94 % of control

COc1ccc(P(=S)(S)c2ccc(OC)cc2)cc1
inactive: [7] 94 % of control | [8] 100 % of control | [9] 90 % of control

NCCCc1c(-c2ccccc2)nc(N)[nH]c1=O
inactive: [10] 108 % of control | [1] 110 % of control | [11] 98 % of control

C=CCNC(=S)Nc1cc(Cl)ccc1C
inactive: [2] 90 % of control | [3] 92 % of control | [4] 86 % of control | [5] 100 % of control | [6] 95 % of control

O=C(NNC(=O)c1cccc2ccccc12)c1cc(Br)ccc1Br
inactive: [12] 97 % of control | [13] 87 % of control | dose: 400.0 mg/kg/injection, schedule: Q04DX003 (ip), vehicle: saline 100 % of control

COc1cccc(CCNC(=O)CCC#N)c1
inactive: dose: 75.0 mg/kg/injection, schedule: Q01DX009 (ip), vehicle: saline 112 % of control | [3] 97 % of control | dose: 150.0 mg/kg/injection, schedule: Q01DX009 (ip), vehicle: saline 93 % of control | [5] 87 % of control | dose: 300.0 mg/kg/injection, schedule: Q01DX009 (ip), vehicle: saline 100 % of control | [6] 90 % of control

CC1CC(C)(C)N=C(C(C)CC(C)(C)C)O1 (centres undefined)
inactive: [12] 105 % of control | [13] 94 % of control

C[CH2][Sn]1([CH2]C)[O]OC(c2ccccc2)[O]1 (centres undefined)
inactive: dose: 0.78 mg/kg/injection, schedule: Q01DX009 (ip), vehicle: saline with Tween-80 101 % of control and 102 % of control | dose: 1.56 mg/kg/injection, schedule: Q01DX009 (ip), vehicle: saline with Tween-80 101 % of control and 110 % of control | dose: 3.12 mg/kg/injection, schedule: Q01DX009 (ip), vehicle: saline with Tween-80 105 % of control and 122 % of control | dose: 6.25 mg/kg/injection, schedule: Q01DX009 (ip), vehicle: saline with Tween-80 100 % of control | dose: 6.25 mg/kg/injection, schedule: Q04DX002 (ip), vehicle: saline with Tween-80 94 % of control | dose: 12.5 mg/kg/injection, schedule: Q01DX009 (ip), vehicle: saline with Tween-80 114 % of control and 121 % of control | dose: 12.5 mg/kg/injection, schedule: Q04DX002 (ip), vehicle: saline with Tween-80 96 % of control | dose: 25.0 mg/kg/injection, schedule: Q01DX009 (ip), vehicle: saline with Tween-80 91 % of control

COC(=O)CCNCCSC(=O)c1ccccc1
inactive: [7] 103 % of control | [8] 105 % of control | [9] 102 % of control

CCOP(=S)(NN=C1CCCCC1)OCC
inactive: [1] 104 % of control | [11] 101 % of control

C/C=C/C[P+](c1ccccc1)(c1ccccc1)c1cccc2ccccc12
inactive: dose: 25.0 mg/kg/injection, schedule: Q04DX002 (ip), vehicle: saline with Tween-80 94 % of control

CC(C)(C)CC(=O)OCCC[N+](C)(C)C
inactive: dose: 25.0 mg/kg/injection, schedule: Q01DX009 (ip), vehicle: water 104 % of control | dose: 50.0 mg/kg/injection, schedule: Q01DX009 (ip), vehicle: water 106 % of control

CC(=Nc1c2c(nc3ccccc13)CCCC2)N(C)C
inactive: dose: 12.0 mg/kg/injection, schedule: Q04DX003 (ip), vehicle: Klucel (hydroxypropylcellulose) (HPC) 105 % of control | dose: 25.0 mg/kg/injection, schedule: Q04DX003 (ip), vehicle: Klucel (hydroxypropylcellulose) (HPC) 100 % of control | [14] 104 % of control

CSC(N)=Nc1c(C)cccc1C
inactive: [15] 102 % of control | [1] 98 % of control | [12] 106 % of control | [11] 100 % of control | [13] 101 % of control

Nc1cccc(C(F)(F)F)c1
inactive: [16] 103 % of control | dose: 50.0 mg/kg/injection, schedule: Q01DX009 (ip), vehicle: saline 103 % of control | dose: 100.0 mg/kg/injection, schedule: Q01DX009 (ip), vehicle: saline 94 % of control and 88 % of control

CCc1cccc(CC)c1N(C(C)=O)C(C)=O
inactive: [17] 98 % of control | [18] 104 % of control | [19] 102 % of control

CN(N)P(=O)(Nc1ccccc1)Nc1ccccc1
inactive: [14] 98 % of control | dose: 75.0 mg/kg/injection, schedule: Q01DX009 (ip), vehicle: Klucel (hydroxypropylcellulose) (HPC) 102 % of control | [3] 91 % of control | dose: 150.0 mg/kg/injection, schedule: Q01DX009 (ip), vehicle: Klucel (hydroxypropylcellulose) (HPC) 115 % of control | [5] 96 % of control | dose: 300.0 mg/kg/injection, schedule: Q01DX009 (ip), vehicle: Klucel (hydroxypropylcellulose) (HPC) 100 % of control

O=[N+]([O-])c1ccc(/C=N/c2nccs2)o1
inactive: dose: 1.56 mg/kg/injection, schedule: Q01DX009 (ip), vehicle: saline 88 % of control | dose: 3.12 mg/kg/injection, schedule: Q01DX009 (ip), vehicle: saline 90 % of control | dose: 6.25 mg/kg/injection, schedule: Q01DX009 (ip), vehicle: saline 93 % of control | dose: 12.5 mg/kg/injection, schedule: Q01DX009 (ip), vehicle: saline 103 % of control | [16] 93 % of control | dose: 25.0 mg/kg/injection, schedule: Q04DX003 (ip), vehicle: saline 97 % of control | [15] 116 % of control | [12] 88 % of control and 91 % of control

NC(=S)N/N=C\c1cn(Cc2ccccc2)c2ccccc12
inactive: [10] 95 % of control | [1] 101 % of control | [11] 101 % of control | [20] 97 % of control

O=C(Oc1ccc(Cl)cc1Cl)c1ccccc1
inactive: [17] 110 % of control | dose: 100.0 mg/kg/injection, schedule: Q04DX003 (ip), vehicle: saline with Tween-80 98 % of control | [18] 110 % of control | dose: 200.0 mg/kg/injection, schedule: Q04DX003 (ip), vehicle: saline with Tween-80 96 % of control | [19] 113 % of control | dose: 400.0 mg/kg/injection, schedule: Q04DX003 (ip), vehicle: saline with Tween-80 101 % of control

O=C1Nc2ccccc2C1=Nc1ccccc1-c1ccccc1
inactive: [1] 91 % of control | [11] 92 % of control | [20] 96 % of control
